Calls of active or inactive are those of the source. The rule behind the calls is not given here.
How the values were obtained:
[1] = biological target: Cyclin-dependent kinase 5 (Homo sapiens) (UniProt Q00535); assay: Inhibition of CDK5 (unknown origin) assessed as remaining activity at 1 uM by Kinome scan method relative to control
[2] = biological target: Casein kinase I isoform gamma-2 (Homo sapiens) (UniProt P78368); assay: Inhibition of CSNK1G2 (unknown origin) assessed as remaining activity at 1 uM by Kinome scan method relative to control
Sequence of Casein kinase I isoform gamma-2 (Homo sapiens) (P78368 whole entry, looked up, canonical isoform): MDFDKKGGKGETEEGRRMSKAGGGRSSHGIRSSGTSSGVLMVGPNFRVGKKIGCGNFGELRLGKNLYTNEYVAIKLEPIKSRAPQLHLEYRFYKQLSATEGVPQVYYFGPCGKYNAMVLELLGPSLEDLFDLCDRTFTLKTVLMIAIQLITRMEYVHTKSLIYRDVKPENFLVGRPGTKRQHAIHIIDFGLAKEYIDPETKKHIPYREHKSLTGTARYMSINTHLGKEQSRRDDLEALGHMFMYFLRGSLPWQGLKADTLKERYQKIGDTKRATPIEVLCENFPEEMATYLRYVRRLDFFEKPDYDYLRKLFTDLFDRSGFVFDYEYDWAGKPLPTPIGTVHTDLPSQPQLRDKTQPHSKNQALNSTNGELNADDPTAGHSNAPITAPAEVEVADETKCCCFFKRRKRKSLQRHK

PBMC = assay: Anti-inflammatory activity against human derived high respond PBMC cells assessed as increase in stimulated IL-12p70 cytokine release at 1 uM incubated for 2 hrs in the presence of LPS/SEB/aCD28 by Luminex based sandwich immunoassay; format: functional, cell-based
[3] = biological target: Protein kinase C zeta type (Homo sapiens) (UniProt Q05513); assay: Inhibition of human PKCzeta assessed as residual activity at 1 uM using 3xChocktide-PKC(19-31) as substrate in presence of 33P-ATP by ProQinase assay relative to control
[4] = biological target: Protein kinase C epsilon type (Homo sapiens) (UniProt Q02156); assay: Inhibition of PRKCE (unknown origin) assessed as remaining activity at 1 uM by Kinome scan method relative to control
[5] = tested on: Hepatocyte growth factor receptor (Homo sapiens), P08581 [D1228N]; assay: Inhibition of human MET D1228N mutant assessed as residual activity at 1 uM using poly(Ala,Glu,Lys,Tyr)6:2:5:1 as substrate in presence of 33P-ATP by ProQinase assay relative to control
[6] = biological target: Serine/threonine-protein kinase 4 (Homo sapiens) (UniProt Q13043); assay: Inhibition of human MST1 assessed as residual activity at 1 uM using RB-CTF as substrate in presence of 33P-ATP by ProQinase assay relative to control
[7] = biological target: Tyrosine-protein kinase receptor TYRO3 (Homo sapiens) (UniProt Q06418); assay: Inhibition of human TYRO3 assessed as residual activity at 1 uM using PolyEY as substrate in presence of 33P-ATP by ProQinase assay relative to control
[8] = biological target: Mitogen-activated protein kinase kinase kinase kinase 5 (Homo sapiens) (UniProt Q9Y4K4); assay: Inhibition of MAP4K5 (unknown origin) assessed as remaining activity at 1 uM by Kinome scan method relative to control
[9] = biological target: Mitogen-activated protein kinase kinase kinase 11 (Homo sapiens) (UniProt Q16584); assay: Inhibition of MLK3 (unknown origin) assessed as remaining activity at 1 uM by Kinome scan method relative to control
[10] = biological target: Casein kinase I isoform delta (Homo sapiens) (UniProt P48730); assay: Inhibition of human CK1delta assessed as residual activity at 1 uM using casein as substrate in presence of 33P-ATP by ProQinase assay relative to control
Sequence of Casein kinase I isoform delta (Homo sapiens) (P48730 whole entry, looked up, canonical isoform): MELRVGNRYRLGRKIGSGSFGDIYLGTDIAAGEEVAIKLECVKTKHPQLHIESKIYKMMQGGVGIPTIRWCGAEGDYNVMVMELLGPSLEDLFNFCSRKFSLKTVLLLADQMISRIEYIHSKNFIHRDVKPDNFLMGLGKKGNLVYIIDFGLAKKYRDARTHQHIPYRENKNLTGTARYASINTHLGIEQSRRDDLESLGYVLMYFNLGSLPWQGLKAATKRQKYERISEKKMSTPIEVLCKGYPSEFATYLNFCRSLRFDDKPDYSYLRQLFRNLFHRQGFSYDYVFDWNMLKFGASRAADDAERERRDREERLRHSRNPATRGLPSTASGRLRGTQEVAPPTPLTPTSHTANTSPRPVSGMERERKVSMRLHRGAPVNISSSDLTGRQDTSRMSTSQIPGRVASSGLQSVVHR

[11] = tested on: Platelet-derived growth factor receptor alpha (Homo sapiens), P16234 [D842V]; assay: Inhibition of human PDGFRalpha D842V mutant assessed as residual activity at 1 uM using Poly(Ala,Glu,Lys,Tyr)6:2:5:1 as substrate in presence of 33P-ATP by ProQinase assay relative to control
[12] = biological target: Tyrosine-protein kinase Yes (Homo sapiens) (UniProt P07947); assay: Inhibition of human YES assessed as residual activity at 1 uM using polyEY as substrate in presence of 33P-ATP by ProQinase assay relative to control
Sequence of Tyrosine-protein kinase Yes (Homo sapiens) (P07947 2-543 limits assumed): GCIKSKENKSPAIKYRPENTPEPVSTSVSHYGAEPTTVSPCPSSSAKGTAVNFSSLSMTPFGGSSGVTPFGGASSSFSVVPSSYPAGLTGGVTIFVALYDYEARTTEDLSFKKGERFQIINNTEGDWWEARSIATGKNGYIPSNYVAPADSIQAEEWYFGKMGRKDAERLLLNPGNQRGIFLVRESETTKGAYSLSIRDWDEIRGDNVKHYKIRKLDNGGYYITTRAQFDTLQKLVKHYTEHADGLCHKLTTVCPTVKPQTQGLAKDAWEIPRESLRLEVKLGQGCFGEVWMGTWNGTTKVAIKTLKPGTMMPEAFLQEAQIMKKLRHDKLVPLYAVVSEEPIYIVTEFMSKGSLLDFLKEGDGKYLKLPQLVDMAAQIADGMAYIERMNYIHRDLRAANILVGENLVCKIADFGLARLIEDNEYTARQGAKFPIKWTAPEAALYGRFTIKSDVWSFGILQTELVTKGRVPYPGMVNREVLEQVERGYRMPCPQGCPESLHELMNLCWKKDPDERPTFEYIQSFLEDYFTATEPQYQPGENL

[13] = tested on: Receptor-type tyrosine-protein kinase FLT3 (Homo sapiens), P36888 [UNDEFINED MUTATION]; assay: Inhibition of FLT3 ITD mutant (unknown origin) assessed as remaining activity at 1 uM by Kinome scan method relative to control
Sequence of Receptor-type tyrosine-protein kinase FLT3 (Homo sapiens), P36888 [UNDEFINED MUTATION] (P36888 whole entry, looked up, change not shown): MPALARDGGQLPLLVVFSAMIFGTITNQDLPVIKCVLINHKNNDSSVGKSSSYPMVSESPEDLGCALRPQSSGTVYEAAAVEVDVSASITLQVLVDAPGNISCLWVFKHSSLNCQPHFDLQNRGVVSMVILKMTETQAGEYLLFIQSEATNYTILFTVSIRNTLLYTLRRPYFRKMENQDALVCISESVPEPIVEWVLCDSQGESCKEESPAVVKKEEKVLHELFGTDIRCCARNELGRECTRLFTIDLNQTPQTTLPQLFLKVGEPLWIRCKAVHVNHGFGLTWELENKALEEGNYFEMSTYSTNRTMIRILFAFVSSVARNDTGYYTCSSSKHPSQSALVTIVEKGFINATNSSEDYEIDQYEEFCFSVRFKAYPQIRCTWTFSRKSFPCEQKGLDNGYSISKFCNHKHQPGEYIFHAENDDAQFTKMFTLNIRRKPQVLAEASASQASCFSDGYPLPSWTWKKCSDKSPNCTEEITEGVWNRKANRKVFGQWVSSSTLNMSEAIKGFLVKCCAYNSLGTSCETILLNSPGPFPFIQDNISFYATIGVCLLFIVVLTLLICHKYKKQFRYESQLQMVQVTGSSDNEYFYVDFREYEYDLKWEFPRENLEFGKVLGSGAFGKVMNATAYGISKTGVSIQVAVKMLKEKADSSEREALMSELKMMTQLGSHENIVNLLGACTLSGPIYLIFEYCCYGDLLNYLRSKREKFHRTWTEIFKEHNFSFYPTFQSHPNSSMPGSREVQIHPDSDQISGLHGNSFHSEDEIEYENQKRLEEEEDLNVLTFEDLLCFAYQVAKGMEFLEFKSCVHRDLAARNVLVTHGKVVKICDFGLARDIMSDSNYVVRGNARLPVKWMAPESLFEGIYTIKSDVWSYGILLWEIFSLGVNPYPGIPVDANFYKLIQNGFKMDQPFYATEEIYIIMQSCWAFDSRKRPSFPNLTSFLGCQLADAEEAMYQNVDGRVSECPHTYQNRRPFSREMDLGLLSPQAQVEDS

[14] = biological target: Rho-associated protein kinase 2 (Homo sapiens) (UniProt O75116); assay: Inhibition of ROCK2 (unknown origin) assessed as remaining activity at 1 uM by Kinome scan method relative to control
[15] = biological target: Ephrin type-A receptor 5 (Homo sapiens) (UniProt P54756); assay: Inhibition of human EPHA5 assessed as residual activity at 1 uM using polyEY as substrate in presence of 33P-ATP by ProQinase assay relative to control
Sequence of Ephrin type-A receptor 5 (Homo sapiens) (P54756 whole entry): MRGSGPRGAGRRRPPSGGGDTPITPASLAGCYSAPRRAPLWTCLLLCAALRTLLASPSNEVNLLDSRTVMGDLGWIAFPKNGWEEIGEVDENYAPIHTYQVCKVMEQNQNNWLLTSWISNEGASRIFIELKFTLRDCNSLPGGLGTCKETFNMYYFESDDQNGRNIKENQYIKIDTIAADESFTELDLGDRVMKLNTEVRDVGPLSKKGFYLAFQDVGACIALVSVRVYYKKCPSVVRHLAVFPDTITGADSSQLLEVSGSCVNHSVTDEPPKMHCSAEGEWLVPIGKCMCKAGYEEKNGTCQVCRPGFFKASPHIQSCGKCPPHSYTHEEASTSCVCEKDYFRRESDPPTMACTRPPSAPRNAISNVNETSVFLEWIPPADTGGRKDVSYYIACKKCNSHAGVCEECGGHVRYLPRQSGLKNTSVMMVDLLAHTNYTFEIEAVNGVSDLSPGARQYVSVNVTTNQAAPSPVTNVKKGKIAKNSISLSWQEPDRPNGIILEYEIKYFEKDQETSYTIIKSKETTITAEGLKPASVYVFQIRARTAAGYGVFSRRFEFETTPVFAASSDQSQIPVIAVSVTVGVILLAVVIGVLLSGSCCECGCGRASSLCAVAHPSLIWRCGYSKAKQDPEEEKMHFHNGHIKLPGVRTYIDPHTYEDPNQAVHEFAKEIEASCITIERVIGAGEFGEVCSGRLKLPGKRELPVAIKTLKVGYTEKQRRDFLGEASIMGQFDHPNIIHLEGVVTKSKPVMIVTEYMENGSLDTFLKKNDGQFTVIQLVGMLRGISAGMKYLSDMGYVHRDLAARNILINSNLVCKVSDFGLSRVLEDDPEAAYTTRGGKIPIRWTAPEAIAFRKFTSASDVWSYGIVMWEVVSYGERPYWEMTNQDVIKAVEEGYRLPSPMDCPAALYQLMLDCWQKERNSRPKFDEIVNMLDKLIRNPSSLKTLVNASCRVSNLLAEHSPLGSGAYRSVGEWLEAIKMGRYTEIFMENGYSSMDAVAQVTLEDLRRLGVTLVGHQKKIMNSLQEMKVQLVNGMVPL

Mus musculus = assay: In vivo anti-inflammatory activity in Gal/LPS induced mouse assessed as TNF-alpha release at 3 mg/kg, po administered for 1 hrs; format: functional
[16] = biological target: Casein kinase II subunit alpha' (Homo sapiens) (UniProt P19784); assay: Inhibition of human CK2alpha2 assessed as residual activity at 1 uM using casein as substrate in presence of 33P-ATP by ProQinase assay relative to control
Sequence of Casein kinase II subunit alpha' (Homo sapiens) (P19784 whole entry, looked up): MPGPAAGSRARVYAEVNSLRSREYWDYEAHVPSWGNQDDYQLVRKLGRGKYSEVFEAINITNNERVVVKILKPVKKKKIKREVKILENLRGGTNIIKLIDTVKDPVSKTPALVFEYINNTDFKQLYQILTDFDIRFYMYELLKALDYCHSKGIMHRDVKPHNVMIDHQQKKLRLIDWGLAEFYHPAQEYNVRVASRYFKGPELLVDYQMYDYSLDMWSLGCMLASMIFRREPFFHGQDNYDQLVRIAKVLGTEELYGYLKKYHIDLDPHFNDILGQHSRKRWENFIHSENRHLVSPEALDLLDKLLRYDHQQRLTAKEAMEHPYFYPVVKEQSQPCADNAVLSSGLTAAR

[17] = biological target: SRSF protein kinase 1 (Homo sapiens) (UniProt Q96SB4); assay: Inhibition of human SRPK1 assessed as residual activity at 1 uM using MBP as substrate in presence of 33P-ATP by ProQinase assay relative to control
[18] = biological target: Serine/threonine-protein kinase RIO3 (Homo sapiens) (UniProt O14730); assay: Inhibition of RIOK3 (unknown origin) assessed as remaining activity at 1 uM by Kinome scan method relative to control
Sequence of Serine/threonine-protein kinase RIO3 (Homo sapiens) (O14730 whole entry): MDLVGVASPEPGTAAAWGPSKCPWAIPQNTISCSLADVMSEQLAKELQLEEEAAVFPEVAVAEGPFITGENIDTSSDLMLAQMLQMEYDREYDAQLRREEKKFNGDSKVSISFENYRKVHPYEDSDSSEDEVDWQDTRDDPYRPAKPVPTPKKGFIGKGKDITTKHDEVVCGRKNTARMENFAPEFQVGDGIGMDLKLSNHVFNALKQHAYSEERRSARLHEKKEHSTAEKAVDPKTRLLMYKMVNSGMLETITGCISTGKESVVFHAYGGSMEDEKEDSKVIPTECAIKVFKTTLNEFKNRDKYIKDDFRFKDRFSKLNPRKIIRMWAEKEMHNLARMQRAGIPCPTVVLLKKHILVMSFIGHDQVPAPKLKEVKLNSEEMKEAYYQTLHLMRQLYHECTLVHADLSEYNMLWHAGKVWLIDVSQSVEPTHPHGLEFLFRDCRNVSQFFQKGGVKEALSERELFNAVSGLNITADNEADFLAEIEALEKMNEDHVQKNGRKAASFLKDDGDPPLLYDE

[19] = Anti-inflammatory activity against human derived high respond PBMC cells assessed as inhibition in stimulated IP-10 chemokine release incubated for 2 hrs in the presence of LPS/SEB/aCD28 by Luminex based sandwich immunoassay; format: functional, cell-based
[20] = tested on: Leucine-rich repeat serine/threonine-protein kinase 2 (Homo sapiens), Q5S007 [I2020T]; assay: Inhibition of human LRRK2 I2020T mutant assessed as residual activity at 1 uM using RBER-CHKtide as substrate in presence of 33P-ATP by ProQinase assay relative to control
[21] = biological target: RAC-beta serine/threonine-protein kinase (Homo sapiens) (UniProt P31751); assay: Inhibition of AKT2 (unknown origin) assessed as remaining activity at 1 uM by Kinome scan method relative to control
[22] = tested on: Hepatocyte growth factor receptor (Homo sapiens), P08581 [Y1230D]; assay: Inhibition of human MET Y1230D mutant assessed as residual activity at 1 uM using poly(Ala,Glu,Lys,Tyr)6:2:5:1 as substrate in presence of 33P-ATP by ProQinase assay relative to control
[23] = tested on: Tyrosine-protein kinase ABL1 (Homo sapiens), P00519 [Y253F]; assay: Inhibition of ABL1 Y253F mutant (unknown origin) assessed as remaining activity at 1 uM by Kinome scan method relative to control
[24] = biological target: Serine/threonine-protein kinase MRCK alpha (Homo sapiens) (UniProt Q5VT25); assay: Inhibition of human CDC42BPA assessed as residual activity at 1 uM using RB-S6P as substrate in presence of 33P-ATP by ProQinase assay relative to control
[25] = biological target: MAP kinase-activated protein kinase 5 (Homo sapiens) (UniProt Q8IW41); assay: Inhibition of human MAPKAPK5 assessed as residual activity at 1 uM using RBER-CHKtide as substrate in presence of 33P-ATP by ProQinase assay relative to control
[26] = biological target: Protein kinase C beta type (Homo sapiens) (UniProt P05771); assay: Inhibition of human PKCbeta1 assessed as residual activity at 1 uM using 3xChocktide-PKC(19-31) as substrate in presence of 33P-ATP by ProQinase assay relative to control
Sequence of Protein kinase C beta type (Homo sapiens) (P05771 2-671 limits assumed): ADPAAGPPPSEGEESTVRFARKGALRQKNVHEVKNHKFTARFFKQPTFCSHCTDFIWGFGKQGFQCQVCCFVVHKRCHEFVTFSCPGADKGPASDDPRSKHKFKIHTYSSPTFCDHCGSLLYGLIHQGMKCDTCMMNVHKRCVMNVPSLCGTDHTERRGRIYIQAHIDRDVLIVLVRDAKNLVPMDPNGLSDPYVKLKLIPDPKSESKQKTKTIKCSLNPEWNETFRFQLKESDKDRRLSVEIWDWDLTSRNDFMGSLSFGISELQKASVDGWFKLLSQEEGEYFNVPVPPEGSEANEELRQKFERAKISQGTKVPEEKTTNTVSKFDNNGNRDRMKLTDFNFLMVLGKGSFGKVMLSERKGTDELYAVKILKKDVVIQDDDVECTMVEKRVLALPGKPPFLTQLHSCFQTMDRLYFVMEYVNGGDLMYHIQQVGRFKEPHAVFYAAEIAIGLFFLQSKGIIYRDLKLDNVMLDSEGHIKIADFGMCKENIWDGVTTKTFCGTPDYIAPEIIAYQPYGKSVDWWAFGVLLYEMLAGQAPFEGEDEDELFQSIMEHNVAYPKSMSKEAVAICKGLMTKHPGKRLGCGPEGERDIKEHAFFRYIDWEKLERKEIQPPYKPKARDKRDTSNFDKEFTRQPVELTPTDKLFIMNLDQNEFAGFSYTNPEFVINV

O=C1c2ccc(Nc3ccc(F)cc3F)cc2CCc2ccc(OC[C@H](O)CO)cc21 [Skepinone-L]
Activity [1]: 100%
Activity [2]: 100%
Activity (PBMC): Active
Activity [3]: 109%
Activity [4]: 100%
Activity [5]: 95%
Activity [6]: 71%
Activity [7]: 108%
Activity [8]: 100%
Activity [9]: 96%
Activity [10]: 98%
Activity [11]: 97%
Activity [12]: 119%
Activity [13]: 96%
Activity [14]: 100%
Activity [15]: 132%
Activity (Mus musculus): 36.3 pg/mL
Activity [16]: 87%
Activity [17]: 100%
Activity [18]: 99%
IC50 [19]: Not Active
Activity [20]: 94%
Activity [21]: 90%
Activity [22]: 95%
Activity [23]: 90%
Activity [24]: 98%
Activity [25]: 97%
Activity [26]: 103%

Source: ChEMBL document CHEMBL5696441 (Nat Chem Biol, 2011)
